Like-named read-outs stand apart in the source and are kept apart here.
Key:
Format in all cases: biochemical
S6K1 = S6K1 (Homo sapiens, UniProt P23443); assay: Kinase screen: S6K1/P70 S6K assay
Method: (§1) Generally, the same procedure was used for all assays. Since the total assay volume was 25.5 microliters, 0.5 microliters of inhibitors at 51× assay concentration were added to the plates before any other addition.
(§2) The basic procedure was to add 0.5 microliters inhibitor/control in DMSO to plate. Fifteen microliters of enzyme/substrate/buffer mix were added and incubated for 5 min. Ten microliters MgATP at the relevant concentration were added and incubated for 30 min. The assay was stopped by adding 5 microliters of 3% orthophosphoric acid. The assay was transferred to a p81 filter plate and read in a scintillation counter of 30 sec/well. Note that this assay procedure was not followed for MKK1, which instead involved a two-step assay, and PKC alpha, which required the addition of lipid vesicles.
(§3) (50-1000 cpm/pmole) and incubated for 30 min at room temperature. Assays were stopped by addition of 5 μl of 0.5 M (3%) orthophosphoric acid and then harvested onto P81 Unifilter plates with a wash buffer of 50 mM orthophosphoric acid.

PLK1 (Okadaic Acid) = PLK1 (Okadaic Acid) (Homo sapiens, UniProt P53350); assay: Kinase screen: PLK1 (Okadaic Acid) assay
Chain of PLK1 (Okadaic Acid) (P53350 whole entry, species assumed): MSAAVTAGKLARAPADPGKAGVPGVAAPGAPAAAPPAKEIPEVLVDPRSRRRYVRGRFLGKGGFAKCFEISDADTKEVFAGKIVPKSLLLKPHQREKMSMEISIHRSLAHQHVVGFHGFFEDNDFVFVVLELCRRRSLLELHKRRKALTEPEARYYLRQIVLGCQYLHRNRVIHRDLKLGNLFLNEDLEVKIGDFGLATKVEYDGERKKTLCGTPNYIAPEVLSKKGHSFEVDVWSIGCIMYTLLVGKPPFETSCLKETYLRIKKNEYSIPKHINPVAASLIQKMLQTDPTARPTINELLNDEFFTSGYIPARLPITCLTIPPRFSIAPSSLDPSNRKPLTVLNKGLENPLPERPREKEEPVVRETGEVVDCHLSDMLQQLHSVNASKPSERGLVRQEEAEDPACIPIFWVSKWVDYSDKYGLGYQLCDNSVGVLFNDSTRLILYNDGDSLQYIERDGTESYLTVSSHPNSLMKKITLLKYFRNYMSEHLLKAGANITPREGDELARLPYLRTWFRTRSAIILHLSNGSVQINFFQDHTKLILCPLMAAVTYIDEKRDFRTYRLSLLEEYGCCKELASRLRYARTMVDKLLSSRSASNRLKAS
Method: as §1, §2, §3

SYK = SYK (Homo sapiens, UniProt P43405); assay: Kinase screen: SYK assay; settings: 10 micromolar compound; for remaining activity at 10 µM: read-out: mean activity remaining (as a percentage of the original activity), SYK
Method: as §1, §2
SYK assay: SYK (5-20 mU diluted in 50 mM Tris pH 7.5, 0.1 mM EGTA, 1 mg/ml BSA) was assayed against a substrate peptide (Poly Glut Tyr) in a final volume of 25.5 μl containing 50 mM Tris pH 7.5, 1 mg/ml substrate peptide, 10 mM magnesium acetate and 0.02 mM [33P-g-ATP] (50-1000 cpm/pmole) and incubated for 30 min at room temperature. Assays were stopped by addition of 5 μl of 0.5 M (3%) orthophosphoric acid and then harvested onto P81 Unifilter plates with a wash buffer of 50 mM orthophosphoric acid.

PKBβ = biological target: T1, PKBβ (Homo sapiens, UniProt P31751, S474D); assay: Kinase screen: ΔPH-PKBbeta (S474D) assay
T1 construct: ΔPH-PKBbeta (S474D) assay: ΔPH-PKBbeta-S474D (5-20 mU diluted)
T1 sequence (P31751 120-481 S474D limits assumed, species assumed): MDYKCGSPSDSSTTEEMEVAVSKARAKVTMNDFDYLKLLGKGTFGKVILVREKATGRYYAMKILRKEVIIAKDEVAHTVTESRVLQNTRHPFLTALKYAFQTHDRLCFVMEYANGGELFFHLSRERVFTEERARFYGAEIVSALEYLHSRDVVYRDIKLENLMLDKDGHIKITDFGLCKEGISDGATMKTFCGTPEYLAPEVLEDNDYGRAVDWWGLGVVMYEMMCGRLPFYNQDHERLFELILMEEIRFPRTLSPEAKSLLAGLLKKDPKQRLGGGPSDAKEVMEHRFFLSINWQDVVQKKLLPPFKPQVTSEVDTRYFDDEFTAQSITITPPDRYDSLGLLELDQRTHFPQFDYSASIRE
Method: as §1, §2
ΔPH-PKBbeta (S474D) assay: ΔPH-PKBbeta-S474D (5-20 mU diluted in 50 mM Tris pH 7.5, 0.1 mM EGTA, 0.1% b-mercaptoethanol, 1 mg/ml BSA) was assayed against a modified Crosstide peptide ([…]) (SEQ ID NO: 4) in a final volume of 25.5 μl containing 50 mM Tris pH 7.5, 0.05% b-mercaptoethanol, 30 μM substrate peptide, 10 mM magnesium acetate and 0.05 mM [33P-g-ATP] (50-1000 cpm/pmole) and incubated for 30 min at room temperature. Assays were stopped by addition of 5 μl of 0.5 M (3%) orthophosphoric acid and then harvested onto P81 Unifilter plates with a wash buffer of 50 mM orthophosphoric acid.

NEK6 = NEK6 (Homo sapiens, UniProt Q9HC98); assay: Kinase screen: NEK6 assay
Chain of NEK6 (Q9HC98 whole entry, species assumed): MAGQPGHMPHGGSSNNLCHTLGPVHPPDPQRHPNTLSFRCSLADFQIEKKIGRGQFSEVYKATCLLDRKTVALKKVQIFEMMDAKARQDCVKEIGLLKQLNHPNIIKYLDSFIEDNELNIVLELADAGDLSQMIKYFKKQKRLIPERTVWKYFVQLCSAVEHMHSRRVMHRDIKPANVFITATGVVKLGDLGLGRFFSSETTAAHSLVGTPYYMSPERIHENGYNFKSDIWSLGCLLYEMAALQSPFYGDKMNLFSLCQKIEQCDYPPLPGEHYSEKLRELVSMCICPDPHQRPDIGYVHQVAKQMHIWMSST
Method: as §1, §2
(500-1000 cpm/pmole) and incubated for 30 min at room temperature. Assays were stopped by addition of 5 μl of 0.5 M (3%) orthophosphoric acid and then harvested onto P81 Unifilter plates with a wash buffer of 50 mM orthophosphoric acid.

IKKe = biological target: T2, IKKe (Homo sapiens, UniProt Q14164); assay: Kinase screen: IKKe / IKKepsilon (DU14231) assay; settings: 10 micromolar compound; for remaining activity at 10 µM: read-out: mean activity remaining (as a percentage of the original activity), IKKe
T2 construct: DU14231
T2 sequence (Q14164 1-716): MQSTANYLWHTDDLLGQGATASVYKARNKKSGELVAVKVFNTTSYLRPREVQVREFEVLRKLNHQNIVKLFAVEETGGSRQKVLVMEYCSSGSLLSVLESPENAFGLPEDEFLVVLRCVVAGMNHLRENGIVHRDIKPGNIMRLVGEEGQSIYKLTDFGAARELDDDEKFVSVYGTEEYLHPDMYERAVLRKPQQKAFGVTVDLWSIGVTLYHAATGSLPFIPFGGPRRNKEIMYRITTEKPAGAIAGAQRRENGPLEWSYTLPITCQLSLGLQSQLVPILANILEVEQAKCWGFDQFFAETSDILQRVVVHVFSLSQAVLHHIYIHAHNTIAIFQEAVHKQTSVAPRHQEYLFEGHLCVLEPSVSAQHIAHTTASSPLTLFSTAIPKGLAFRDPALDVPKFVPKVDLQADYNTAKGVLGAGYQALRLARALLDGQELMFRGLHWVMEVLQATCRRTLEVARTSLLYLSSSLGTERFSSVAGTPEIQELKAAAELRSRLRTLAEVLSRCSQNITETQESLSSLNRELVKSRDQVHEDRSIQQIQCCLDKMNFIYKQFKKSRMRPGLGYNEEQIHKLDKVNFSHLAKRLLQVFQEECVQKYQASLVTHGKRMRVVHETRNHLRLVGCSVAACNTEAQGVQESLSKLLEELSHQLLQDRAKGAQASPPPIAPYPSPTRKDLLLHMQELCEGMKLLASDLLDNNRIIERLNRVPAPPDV
Method: as §1, §2
(§4) IKKe assay: 5-20 mU of IKKe (diluted in 50 mM Tris (pH 7.5), 0.1 mM EGTA, 1 mg/ml BSA) was assayed against MBP in a final volume of 25.5 μl containing 50 mM Tris (pH 7.5), 0.1 mM EGTA, 0.33 mg/ml MBP, 10 mM magnesium acetate and 0.05 mM [33P-g-ATP] (500-1000 cpm/pmole) and incubated for 30 mins at room temperature. Assays were stopped by addition of 5 μl of 0.5M (3%) orthophosphoric acid. Assays were harvested onto P81 Unifilter plates using a wash buffer of 50 mM orthophosphoric acid.
as §4, with “IKKepsilon (DU14231)” for “IKKe”, “IKKepsilon (DU14231)(diluted” for “IKKe (diluted”

[1] = 10 micromolar compound, read-out: mean activity remaining (as a percentage of the original activity), S6K1
[2] = 10 micromolar compound, read-out: mean activity remaining (as a percentage of the original activity), PLK 1 (Okadaic Acid)
[3] = 0.5 h, 10 micromolar compound, read-out: mean activity remaining (as a percentage of the original activity), PKBb
[4] = 10 micromolar compound, read-out: mean activity remaining (as a percentage of the original activity), NEK 6

Chain of S6K1 (P23443 whole entry, species assumed): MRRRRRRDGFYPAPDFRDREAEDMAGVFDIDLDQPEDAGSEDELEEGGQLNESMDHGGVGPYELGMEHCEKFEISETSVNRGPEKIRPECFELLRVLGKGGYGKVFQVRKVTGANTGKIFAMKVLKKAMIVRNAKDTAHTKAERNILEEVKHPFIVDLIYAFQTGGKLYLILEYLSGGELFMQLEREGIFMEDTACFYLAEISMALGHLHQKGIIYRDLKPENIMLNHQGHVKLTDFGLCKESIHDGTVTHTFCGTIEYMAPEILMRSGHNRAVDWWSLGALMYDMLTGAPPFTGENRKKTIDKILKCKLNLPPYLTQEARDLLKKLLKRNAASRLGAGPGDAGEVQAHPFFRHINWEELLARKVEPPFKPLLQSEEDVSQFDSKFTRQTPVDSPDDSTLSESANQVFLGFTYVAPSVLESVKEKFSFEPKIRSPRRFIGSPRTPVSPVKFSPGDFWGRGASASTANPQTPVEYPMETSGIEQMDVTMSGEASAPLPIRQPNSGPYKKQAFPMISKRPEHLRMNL

CC[C@H](CO)Nc1cc(NCc2ccccc2)n2ncc(C(C)C)c2n1 [ICEC0067]
remaining activity at 10 µM (S6K1; [1]): 74%
remaining activity at 10 µM (PLK1 (Okadaic Acid); [2]): 93%
remaining activity at 10 µM (SYK): 104%
remaining activity at 10 µM (PKBβ; [3]): 102%
remaining activity at 10 µM (NEK6; [4]): 101%
remaining activity at 10 µM (IKKe): 103%

CC(C)c1cnn2c(NCc3ccccc3F)cc(NCCCCCN)nc12 [ICEC-0232]
mean activity remaining (as a percentage of the original activity), S6K1 (S6K1; 10 micromolar compound): 42%
mean activity remaining (as a percentage of the original activity), PLK 1 (Okadaic Acid) (PLK1 (Okadaic Acid); 10 micromolar compound): 125%
mean activity remaining (as a percentage of the original activity), SYK (SYK): 84%
mean activity remaining (as a percentage of the original activity), PKBb (PKBβ; 10 micromolar compound): 76%
mean activity remaining (as a percentage of the original activity), NEK 6 (NEK6; 10 micromolar compound): 74%
mean activity remaining (as a percentage of the original activity), IKKe (IKKe): 92%

CC(C)c1cnn2c(NCc3ccccc3)cc(NCCCCCCCN)nc12 [BS-181]
remaining activity at 10 µM (S6K1; S6K1, 10 μM, read-out: Mean Remaining Enzyme Activity (%)): 95%
remaining activity at 10 µM (PLK1 (Okadaic Acid); PLK1 (Okadaic Acid), 10 μM, read-out: Mean Remaining Enzyme Activity (%)): 108%
remaining activity at 10 µM (PKBβ; PKBβ, 10 μM, read-out: Mean Remaining Enzyme Activity (%)): 81%
remaining activity at 10 µM (NEK6; NEK6, 10 μM, read-out: Mean Remaining Enzyme Activity (%)): 85%

CC(C)c1cnn2c(NCc3ccccc3)cc(N[C@@H](CO)[C@H](O)CO)nc12 [ICEC0318, (3S)-3-(7-(Benzylamino)-3-isopropylpyrazolo[1,5-a]pyrimidin-5-ylamino)butane-1,2,4-triol]
remaining activity at 10 µM (S6K1; [1]): 77%
remaining activity at 10 µM (PLK1 (Okadaic Acid); [2]): 97%
remaining activity at 10 µM (SYK): 120%
remaining activity at 10 µM (PKBβ; [3]): 105%
remaining activity at 10 µM (NEK6; [4]): 87%
remaining activity at 10 µM (IKKe): 94%

C=C[C@H](CO)Nc1cc(NCc2ccccc2)n2ncc(C(C)C)c2n1 [ICEC0065]
remaining activity at 10 µM (S6K1; [1]): 78%
remaining activity at 10 µM (PLK1 (Okadaic Acid); [2]): 104%
remaining activity at 10 µM (SYK): 104%
remaining activity at 10 µM (PKBβ; [3]): 109%
remaining activity at 10 µM (NEK6; [4]): 105%
remaining activity at 10 µM (IKKe): 101%
